These results are taken from publication PMC13327620, “A Deep‐Red‐Absorbing Osmium(II) Complex as a Photosensitizer for Photodynamic Therapy Inducing Immunogenic Cell Death” (Angewandte Chemie (International Ed. in English), 2026).

The subject of series [1] is mouse fibrosarcoma (MCA205) cells. The experiment in a line: Resazurin cell viability assay, phototoxicity. It counts as cell-based. Conditions: MCA-205, light or radiation study, 1 h, MCA205, 740 nm, 60 min, 12.60 J/cm2. How it is done: (§1) (100 U ml−1), streptomycin (100 U ml−1), and 1% L-glutamine. The murine fibrosarcom a (MCA205) cells were cultured in RPMI 1640 medium with 10% fetal bovine serum (FBS), penicillin (100 U ml−1), streptomycin (100 U ml−1), and 1% L-glutamine. All cells were incubated at 37 °C in a humidified atmosphere with 5 % CO2.
(§2) Normoxia. The in vitro viability of cells exposed to the complexes was determined using a resazurin assay. C ells were seeded in 96-well plates at densities of 4,000 cells/well for CT26, MC A205 and U-87 MG cells, and 8,000 cells/well for MRC-5 and NIH/3T3 cells. A fter 24 h of growth at 37 °C wit h 5% CO2, the medium was replaced with fresh medium containing various concentrations of the compounds . Following a 4- h incubation in the dark, the medium was refres hed , and the plates were exposed to irradiation usinga LUM OS -BIO photoreactor (At las Photonics).N on- ir rad iated plates were similarly refr eshed with medium and kept in the dark for the same duration. After a 40- h r ecov ery period, a f reshly pr epar ed resazurin solution (0.2 mg/mL) was added to each well, and the plates were left in the dark for 4 h before analysis on a B i o Te k Cytation 5 Cell Imaging Multimode Reader (Agil ent Technologies). […]
On the technique in general: The colour change of resazurin is a common sign of viable cells or microbes.

The nature of series [2]: Photostability by UV-vis absorption in PBS with 10% FBS. It counts as physicochemical. The following applies: 10% FBS in PBS, 50 μM. An excerpt: Photostability is a crucial parameter for PSs, as it has a significant impact on their phototoxicity. Based on the results of our in vitro phototoxicity studies, and in view of future in vivo experiments, we decided to investigate the stability of Os2 and Ce6 under deep‐red illumination. Therefore, we monitored the UV–vis absorption spectra of Os2 and Ce6 in biological media (10% FBS in PBS, phosphate‐buffered saline) using a 740 nm excitation wavelength for one hour and a 770 nm excitation wavelength for 2 h, with the duration of light exposure kept consistent with in vitro phototoxicity tests. […]
software Fluofit (PicoQuant GmbH, BERLIN, Germany) based on iterative reconvolution using a Levensberg- M arquandt alg oritm, enabling the obtention of multi-exponential profiles (m ainly one or two exponenti als in our cases ).
Compound Os2 and Ce6 were dissolved in biologically relevant media (PBS solution with 10% FBS) at 50 μ M from the stock solution (10 m M in DMSO). The UV -Vi s spectrum of each complex was recorded from 300 nm to 900 nm at 10- or 20- minutes intervals using BioTek Cytation 5 Cell Imaging Multimode Reader (Agilent […]
The hydrodynamic diameter was determined using dynamic light scattering (DLS, Malvern ZetaSizer Nano ZS) at 25 ℃ . PBS with 10% FBS solutions were filtered through a 0.22 µM membrane before use. […]

Series [3] deals with mouse colon adenocarcinoma (CT-26) cells. The experiment in a line: Resazurin cell viability assay, (photo)cytotoxicity under hypoxia (1% O2). The series is classed as cell-based. How it is done:
as §1
as §2, with “Following a 4- h incubation in the dark, the medium was refres hed , and the plates were exposed to irradiation usinga LUM OS -BIO photoreactor (At las Photonics).N on- ir rad iated plates were similarly refr eshed with medium and kept in the dark for the same duration.” left out
Non-irradiat ed plates were similarly refreshed with medium and k ept in th e d ark fo r the same duration. After a 40 -h recovery period, a f res hly prepar ed resazurin solution (0.2 mg/mL) was added to each well, and the plates were left in the dark for 4 h before analysis on a BioTek Cytation 5 Cell Imaging Multimode Reader (Agilent […]

Where two headings read alike, the source gives them in different places. A value given as a limit tells only on which side of the number the result lay.

For orientation: IC50 means the concentration that gives 50% inhibition. Take `C=Cc1c(C)c2cc3nc(c(CC(=O)O)c4[nH]c(cc5nc(cc1[nH]2)C(C)=C5CC)c(C)c4C(=O)O)[C@@H](CCC(=O)O)[C@@H]3C` [Ce6, chlorin e6]: the IC50 is 1.77 ± 0.38 µM in series [1]; more than 100 µM in series [3] (CT26, CT-26, hypoxia (1% O2), dark, read-out: IC50 Dark); 5.63 ± 0.41 µM in series [3] (CT26, light or radiation study, 1 h, CT-26, hypoxia (1% O2), 740 nm, 60 min, 12.60 J/cm2, read-out: IC50 740 nm). The “Photostability (UV-vis absorption spectrum)” value in series [2] (740 nm excitation, 1 h, 12.60 J/cm2) is “decreased by nearly half after 50 min”; in series [2] (770 nm excitation, 2 h, 15.30 J/cm2), “did not change”.
